The text below walks through data of PMC6301270 (MedChemComm, 2018).

Assay [1] has as its system T.b. brucei (strain 427) bloodstream form parasites. Put plainly: Trypanosoma brucei assay, dose–response (this study). The format is cell-based. Particulars: for IC50: Trypanosoma brucei; for Selectivity index: calculated as IC50(HeLa)/IC50(T.bb).
A further assay deals with HeLa cells. Put plainly: HeLa cell assay (cytotoxicity). The class given is cell-based. The conditions noted are these: Homo sapiens, HeLa cells, 48 hours, resazurin, read-out: HeLa IC50. As to the method: HeLa cells were cultured in DMEM medium supplemented with 10% fetal bovine serum and antibiotics (penicillin/streptomycin/amphotericin B) at 37 °C in a 5% CO2 incubator. On the day prior to compound addition, cells were plated in 96-well plates at 2 × 10^4 cells per well. Compounds were added to the cells in 3-fold serial dilutions and incubation at 37 °C in a 5% CO2 incubator continued for 48 hours. Twenty μl resazurin reagent (0.5 mM resazurin in phosphate-buffered saline) was added to each well and, after a 2-hour incubation, fluorescence (Exc560/Em590) was measured in a plate reader. Percentage cell viability in drug-treated wells was calculated from the fluorescent readings obtained relative to those in wells containing control, untreated cells. Plots of % cell viability vs. log[compound] were used to determine IC50 values by non-linear regression analysis using GraphPad Prism.

Assay [2] concerns T.b. brucei (strain 427) bloodstream form parasites. Description: T.b. brucei single concentration screen (10 μM). The conditions noted are these: Trypanosoma brucei, read-out: T.b.brucei % viability (10 µM).
Setting [3] is: Table 1, kinetoplastid category, 48 hours at 37 °C, resazurin, read-out: T. brucei brucei IC50 (μM) This study.
The mark [4] stands for this setting: Table 2, remaining Pathogen Box, 48 hours at 37 °C, resazurin, read-out: T. brucei brucei IC50 (μM) This study.

Structures are written as SMILES. “Also recorded” adds a separate entry of the source. Read-outs that look alike come from different tables or passages of the source.

Regarding `CC1CCCCN1C(=O)NCCc1coc(-c2ccc(F)cc2)n1` (stereo not shown) [Compound 5, CC1CCCCN1C(=O)NCCc2coc(n2)c3ccc(F)cc3], the values for the IC50 (in assay [1] (setting [3]); with HeLa cells (Table 1)) were 0.05 µM and more than 25000 nM, respectively. In addition, in assay [2], the viability at 10 µM came out at 2.2%.
On to `c1ccc(-c2nc(NC3CCCCC3)cc(C3CC3)n2)nc1` [Compound 35, C1CCC(CC1)Nc2cc(nc(n2)c3ccccn3)C4CC4], for which the “T.b. brucei inhibition in words, this study” value in assay [1] is listed as “sub-micromolar range; also recorded: activity in the nanomolar range”. Besides, the IC50 was 0.83 µM in assay [1] (setting [4]); less than 1 µM in assay [1] (pIC50 values (M), read-out: pIC50 (T.b. brucei), this study (converted)); more than 25000 nM with HeLa cells (Table 2). For the same molecule, the viability at 10 µM in assay [2] came to 2%.
As to `Cc1ccc2[nH]c(C3CCCNC3)c(-c3ccncc3)c2c1` (stereo not shown) [Compound 36, Cc1ccc2[nH]c(C3CCCNC3)c(c4ccncc4)c2c1], the figures for the IC50 (in assay [1] (setting [4]); in the assay on HeLa cells (Table 2)) were 2.2 µM and 8900 nM, respectively. Besides, the Selectivity index in assay [1] is 4.0. Besides, the viability at 10 µM in assay [2] worked out at 1%.
Taken in the same sequence, the figures for `CCOC(=O)c1c(NC(=O)c2c(F)c(F)c(F)c(F)c2F)sc(C(N)=O)c1C` [Compound 37, CCOC(=O)c1c(C)c(sc1NC(=O)c2c(F)c(F)c(F)c(F)c2F)C(=O)N] were 11 µM, more than 25000 nM, more than 2.2 and 7%.
Taken in the same sequence, the figures for `COC(=O)c1c(NC(=O)c2c(F)c(F)c(F)c(F)c2F)sc2c1CCCCC2` [Compound 38, COC(=O)c1c2CCCCCc2sc1NC(=O)c3c(F)c(F)c(F)c(F)c3F] were 11 µM, more than 25000 nM, more than 2.2 and 7%.
For the molecule `CC[C@H]1CN2CCc3cc(OC)c(OC)cc3[C@@H]2C[C@@H]1C[C@H]1NCCc2cc(OC)c(OC)cc21` [Emetine, reference compound], in the assay with HeLa cells (Table 1), the IC50 is 400 nM.
Regarding `COc1cc(Br)cc2cc(C(=O)Nc3cccc(C(F)(F)F)c3)c(=O)oc12` [MMV688891, COc1cc(Br)cc2C=C(C(=O)Nc3cccc(c3)C(F)(F)F)C(=O)Oc12], in assay [2], the viability at 10 µM was 96%.
Same read-out and setting: the same measure for `OC[C@H]1O[C@@H](n2c3ccc(Cl)cc3c3c(-c4cc5ccccc5o4)ncnc32)C(O)[C@H]1O` (stereo partly shown) [MMV688921, OC[C@H]1O[C@H](C(O)[C@H]1O)n2c3ccc(Cl)cc3c4c(ncnc24)c5oc6ccccc6c5]: 97%.
On the same count and under the same terms, under `CCc1nn(C)c(C(=O)NCc2ccc(Oc3ccc(C)cc3)cc2)c1Cl` [MMV688934, CCc1nn(C)c(C(=O)NCc2ccc(Oc3ccc(C)cc3)cc2)c1Cl] stands 101%; under `O=C(c1ccco1)N(CCCn1ccnc1)c1nc2c(Cl)cccc2s1` [MMV688936, Clc1cccc2sc(nc12)N(CCCn3ccnc3)C(=O)c4occc4], 92%.
The same measure, in the same setting: under `CCOc1ccc(-c2nc(CNCCc3ccc(F)cc3)cs2)cc1` [MMV688938, CCOc1ccc(cc1)c2nc(CNCCc3ccc(F)cc3)cs2] stands 63%; under `Cc1ccc2nc(C)c(-c3ccn(Cc4ccccc4)n3)n2c1` [MMV688939, Cc1ccc2nc(C)c(c3ccn(Cc4ccccc4)n3)n2c1], 101%; under `COc1cc(CN2CCC3(C=Cc4ccccc43)CC2)cc2c1OCO2` [MMV688941, COc1cc(CN2CCC3(CC2)C=Cc4ccccc34)cc5OCOc15], 114%.
With `CC(C)(C)C(O)C(Oc1ccc(-c2ccccc2)cc1)n1cncn1` (stereo not shown) [MMV688942, CC(C)(C)C(O)C(Oc1ccc(cc1)c2ccccc2)n3cncn3], in assay [2], the viability at 10 µM stood at 79%.
Same read-out and setting: the same measure for `CC1COC(Cn2cncn2)(c2ccc(Oc3ccc(Cl)cc3)cc2Cl)O1` (stereo not shown) [MMV688943, CC1COC(Cn2cncn2)(O1)c3ccc(Oc4ccc(Cl)cc4)cc3Cl]: 100%; for `Cc1cc(NC(=O)c2ccc(Oc3ccc(Cl)cc3O)o2)no1` [MMV688955, Cc1cc(NC(=O)c2ccc(Oc3ccc(Cl)cc3O)o2)no1]: 88%.
Same read-out and setting: under `CCc1cc(=O)n(C)c(SC(C)C(=O)Nc2ccc(F)cc2)n1` (stereo not shown) [MMV688980, CCC1=CC(=O)N(C)C(=N1)SC(C)C(=O)Nc2ccc(F)cc2] stands 101%.
The same measure, in the same setting: the same measure for `Clc1ccc(CN2CCN(C3=NCCN3)CC2)cc1Cl` [MMV689060, Clc1ccc(CN2CCN(CC2)C3=NCCN3)cc1Cl]: 101%.
As for `CC(=O)Nc1ccc(-c2noc(CC3CCCN(Cc4cccc(F)c4C)C3)n2)cc1` (stereo not shown) [MMV689061, CC1=C(F)C=CC=C1CN2CCCC(CC3=NC(C4=CC=C(NC(C)=O)C=C4)=NO3)C2], the viability at 10 µM in assay [2] came out at 92%.
The same measure, in the same setting: under `FC(F)(F)c1ccc(N(c2cccnc2)C2CCN(c3ccc(C(F)(F)F)cn3)CC2)cc1` [MMV689243, FC(F)(F)c1ccc(cc1)N(C2CCN(CC2)c3ccc(cn3)C(F)(F)F)c4cccnc4] stands 103%.
Consider `O=C([C@@H](c1ccc(Cl)cc1)c1cccnc1)N1CCN(c2ccc(C(F)(F)F)cc2)CC1` [MMV689244, FC(F)(F)c1ccc(cc1)N2CCN(CC2)C(=O)[C@@H](c3ccc(Cl)cc3)c4cccnc4], for which the viability at 10 µM in assay [2] was 108%.
In the case of `Nc1ncnc2c1ncn2C[C@@H](O)[C@@H](O)C(=O)O` [MMV689255, Nc1ncnc2c1ncn2C[C@@H](O)[C@@H](O)C(=O)O], in assay [2], the viability at 10 µM amounted to 111%.
The same measure, in the same setting: the same measure for `CC(c1cc(Cl)cc(Cl)c1)N(C)c1ncc2c(N)nc(N)nc2n1` (stereo not shown) [MMV689437, CC(N(C)c1ncc2c(N)nc(N)nc2n1)c3cc(Cl)cc(Cl)c3]: 98%; for `CNc1cc(C)nc(C2CN(C(=O)c3n[nH]c4ccccc34)CCO2)c1` (stereo not shown) [MMV689709, O=C(N1CC(C2=CC(NC)=CC(C)=N2)OCC1)C3=NNC4=C3C=CC=C4]: 87%; for `COc1ccc(Oc2ccc([C@@H](C)N(C)c3ncc4c(N)nc(N)nc4n3)cc2)cc1` [MMV690102, COc1ccc(Oc2ccc(cc2)[C@@H](C)N(C)c3ncc4c(N)nc(N)nc4n3)cc1]: 42%.
The same measure, in the same setting: the same measure for `C[C@H](c1ccc2c(c1)CCCC2)N(C)c1ncc2c(N)nc(N)nc2n1` [MMV690103, C[C@@H](N(C)c1ncc2c(N)nc(N)nc2n1)c3ccc4CCCCc4c3]: 26%; for `CCc1ccc(C(NCc2nc(N)nc(N(C)C)n2)C(C)C)cc1` (stereo not shown) [MMV1019989, CCc1ccc(cc1)C(NCc2nc(N)nc(n2)N(C)C)C(C)C]: 92%; for `O=C(Nc1nc(-c2ccccn2)cs1)C1CC1c1ccccc1F` (stereo not shown) [MMV1028806, Fc1ccccc1C2CC2C(=O)Nc3nc(cs3)c4ccccn4]: 63%.
The same measure, in the same setting: the same measure for `CNC(=O)CNc1nc(-c2ccccn2)nc2scc(-c3ccccc3)c12` [MMV1029203, CNC(=O)CNc1nc(nc2scc(c3ccccc3)c12)c4ccccn4]: 98%.
Regarding `CCNC(=O)C(C)Nc1nc(-c2cccnc2)nc2sc(C)c(C)c12` (stereo not shown) [MMV1037162, CCNC(=O)C(C)Nc1nc(nc2sc(C)c(C)c12)c3cccnc3], the viability at 10 µM in assay [2] was 85%.
Same read-out and setting: the same measure for `Cc1ccc(-c2nc(CN(Cc3ccccn3)C(C)C)cs2)o1` [MMV1088520, CC(C)N(Cc1ccccn1)Cc2csc(n2)c3oc(C)cc3]: 72%.
With `COc1cccn2c(C(=O)N3CCCCC3)c(C(F)(F)F)nc12` [MMV1110498, FC(F)(F)C1=C(C(N2CCCCC2)=O)N(C=CC=C3OC)C3=N1], the viability at 10 µM in assay [2] was found to be 99%.
The same measure, in the same setting: the same measure for `Cc1cc(OCC(=O)Nc2ccc(C(C)C)cc2)n(C)c(=O)c1C#N` [MMV1198433, CC(C)c1ccc(NC(=O)COC2=CC(=C(C#N)C(=O)N2C)C)cc1]: 70%.
With `N=C(N)c1ccc(OCCCCCOc2ccc(C(=N)N)cc2)cc1` [Pentamidine, reference compound], the IC50 in assay [1] (setting [3]) is 0.0031 µM.
